Reference: patent US20240115496A1, “A COMPOUND DRY POWDER INHALANT AND USE THEREOF” (TIANJIN UNIVERSITY OF TRADITIONAL CHINESE MEDICINE, priority 2021, published 2024)

Columns and labels:
[1] = In vivo pharmacokinetics, lung tissue homogenate (UPLC-MS/MS); design: species or system rat; settings: for CL/F (clearance) / Cmax / Tmax / half-life / MRT last: BA in rat lung tissue; for concentration at 2 min / concentration at 4 min / concentration at 10 min / concentration at 15 min / concentration at 30 min / concentration at 60 min / concentration at 120 min / concentration at 240 min / concentration at 360 min / Cmax / Tmax / half-life / MRT last: male, Sprague-Dawley (SD); for concentration at 2 min / concentration at 4 min / concentration at 10 min / concentration at 15 min / concentration at 30 min / concentration at 60 min / concentration at 120 min / concentration at 240 min / concentration at 360 min: rat lung tissue homogenate, read-out: Drug concentration of BA in lung tissue; for Cmax / Tmax / half-life / MRT last: lung tissue (homogenate supernatant); for half-life: read-out: HLz (biological half-life) (converted); for MRT last: read-out: MRTlast (mean retention time)
Experimental: (§1) SPF-grade healthy SD male rats, body weight 180-220 g, purchased from SPF (Beijing) Biotechnology Co., Ltd (Certificate No. SCXK (Beijing) 2019-0010), were conventionally reared under (23±2)° C., humidity: (50±10)%. This study was conducted with the approval of the Animal Experiment Center of Tianjin University of Traditional Chinese Medicine.
(§2) 108 SPF-grade SD male rats were randomly divided into tail intravenous injection group and pulmonary administration group, with 9 time points of 2 min, 4 min, 10 min, 15 min, 30 min, 1 h, 2 h, 4 h and 6 h per group, 6 rats per time point per group. The rats were fasted for 12 h before the experiment, with water provided. The rats were weighed (to calculate the dose) and numbered, and both groups were intraperitoneally injected with 10% chloral hydrate at a dose of 2 mL/kg. Group 1 was administered BA/AH-DPI saline solution by tail intravenous injection at a dose of 9 mg/kg. Group 2 was administered 3 mg of BA/AH-DPI fine powder at the same dose by spray administration with a DP-4 tracheal insufflator (1.5 mL of air was pushed each time, 3-4 times consecutively). Blood was sampled from the abdominal aorta of the rats in both groups at the above time points after drug administration, and the rats were executed. The obtained whole blood was placed in a centrifuge tube with sodium heparin, centrifuged at 4000 r/min for 10 min, and the upper layer of plasma was separated and stored a refrigerator at −80° C. After blood collection, the thoracic cavity was quickly opened and the lungs of the rats were isolated. The small amount of floating blood on the surface of the lung tissue was washed with saline in an ice bath. The surface of the lung tissue was blotted with filter paper. The trachea was cut off, wrapped in tin foil and placed in a 10 mL centrifuge tube. The lung was weighed precisely, and stored in a refrigerator at −80° C.
The lung tissues were added to saline in a weight to volume ratio of 1:4 (g:mL). A homogenate was obtained by beating, dispersing and evenly grinding with a homogenizer under an ice water bath, and centrifuged at 6500 r/min for 20 min to obtain the supernatant of the lung tissue homogenate.
(§3) 100 μL of the plasma sample or lung tissue supernatant was precisely absorbed, and 200 μL (100 ng/mL) of methanol solution containing the internal standard was added. The mixture was vortexed and mixed for 3 min, and centrifuged at 12000 r/min for 10 min to obtain the supernatant as the finished sample. The contents of BA and AH were determined by UPLC-MS/MS method.
(§4) Electrospray ion source (ESI source); scan mode: positive (ESI+) detection; detection mode: multi-reactive ion monitoring (MRM). Electrospray voltage: 4 kV; atomization gas: N2; spray gas flow rate (Gas1): 15 psi; ion source temperature: 300° C.
(§5) Meaning of pharmacokinetic parameters: HLz was the biological half-life, i.e., the time required for the amount or blood concentration of the drug in the body to decrease by half; Tmax was the time to peak, i.e., the time required to reach the peak concentration of the drug after administration. Cmax was the peak drug concentration, i.e., the highest blood concentration that occurred after administration of the drug. AUC was the area enclosed by the blood drug concentration curve against the time axis. Vz/F was the apparent volume of distribution, the ratio constant of the amount of drug in the body to the blood concentration when the drug reached dynamic equilibrium in the body. CL/F was the clearance, i.e., the number of apparent volume of distribution of the drug removed from the body per unit time. AUMC was the first order moment of the drug-time curve, i.e. the area under the curse of the product of time and blood concentration versus time. MRTlast was the mean retention time, i.e., the average of the residence time of drug molecules in the body.

[2] = In vivo pharmacokinetics, plasma (UPLC-MS/MS); design: species or system rat; settings: for half-life: read-out: HLz (biological half-life) (converted); for MRT last: read-out: MRTlast (mean retention time); for concentration at 2 min / concentration at 10 min / concentration at 15 min / concentration at 30 min / concentration at 60 min / concentration at 120 min / concentration at 240 min / concentration at 360 min / concentration at 4 min: read-out: Blood concentration of BA; for concentration at 4 min: Sprague-Dawley (SD)
Experimental: as §1, §2, §3, §4, §5

[3] = Particle size distribution test, laser particle size analyzer, dry dispersion; type: physicochemical
Experimental: The particle size distribution of DPI dry powder was measured by dry dispersion method using laser particle size analyzer, and Dv10, Dv50, Dv90, VMD (Volume median diameter) and SMD (Sauter mean diameter) were determined, respectively.

[4] = tail intravenous injection group, 9 mg/kg
[5] = inhaled, pulmonary administration BA/AH-DPI 9 mg/kg
[6] = inhaled or intranasal, pulmonary administration group, BA/AH-DPI 9 mg/kg
[7] = tail intravenous injection BA/AH-DPI saline solution 9 mg/kg
[8] = male, SD, inhaled or intranasal, BA in rat plasma, pulmonary administration group, BA/AH-DPI 9 mg/kg
[9] = male, SD, inhaled, rat plasma, pulmonary administration BA/AH-DPI 9 mg/kg
[10] = male, SD, BA in rat plasma, tail intravenous injection group, 9 mg/kg
[11] = male, SD, rat plasma, tail intravenous injection BA/AH-DPI saline solution 9 mg/kg

## O=C(O)[C@H]1O[C@@H](Oc2cc3oc(-c4ccccc4)cc(=O)c3c(O)c2O)[C@H](O)[C@@H](O)[C@@H]1O [BA, baicalin]
[1]; pulmonary administration group, BA/AH-DPI 9 mg/kg
  CL/F (clearance): 800.14 ± 131.95 g/h/kg
[1]; [4]
  CL/F (clearance): 29086.90 ± 13876.33 g/h/kg
  Cmax: 341 ± 112 ng/g
  Tmax: 1.98 min
  half-life: 101 ± 44.4 min
  MRT last: 91.2 ± 36 min
[1]; [5]
  concentration at 2 min: 6440 ± 1200 ng/mL
  concentration at 4 min: 4960 ± 1130 ng/mL
  concentration at 10 min: 3190 ± 524 ng/mL
  concentration at 15 min: 1820 ± 346 ng/mL
  concentration at 30 min: 1420 ± 469 ng/mL
  concentration at 60 min: 705 ± 160 ng/mL
  concentration at 120 min: 235 ± 76.2 ng/mL
  concentration at 240 min: 92.2 ± 25.4 ng/mL
  concentration at 360 min: 43.1 ± 16.9 ng/mL
[1]; [6]
  Cmax: 26000 ± 4490 ng/g
  Tmax: 2.64 ± 1.08 min
  half-life: 84 ± 24 min
  MRT last: 57 ± 5.22 min
[1]; [7]
  concentration at 2 min: 85.3 ± 27.9 ng/mL
  concentration at 4 min: 42 ± 7.67 ng/mL
  concentration at 10 min: 45.1 ± 13.6 ng/mL
  concentration at 15 min: 45.8 ± 18.7 ng/mL
  concentration at 30 min: 39.2 ± 22 ng/mL
  concentration at 60 min: 16.3 ± 19.5 ng/mL
  concentration at 120 min: 12.9 ± 10.5 ng/mL
  concentration at 240 min: 8.37 ± 6.37 ng/mL
  concentration at 360 min: 2.71 ± 3.37 ng/mL
[2]; BA in rat plasma, tail intravenous injection group, 9 mg/kg
  CL/F (clearance): 98.4805 ± 62.0535 mL/min/kg
[2]; [8]
  Cmax: 2560 ± 351 ng/mL
  Tmax: 9 ± 4.2 min
  half-life: 121 ± 38.4 min
  MRT last: 45 ± 5.52 min
[2]; male, SD, inhaled or intranasal, BA in rat plasma, pulmonary administration group, BA/AH-DPI 9 mg/kg, read-out: CL/F (clearance) (converted)
  CL/F: 121 mL/min/kg
[2]; male, SD, inhaled or intranasal, BA in rat plasma, pulmonary administration group, BA/AH-DPI 9 mg/kg, read-out: Vz/F (apparent volume of distribution)
  Vd/F: 20.9 ± 6.57 L/kg
[2]; male, SD, inhaled, rat plasma, pulmonary administration of BA/AH-DPI vs tail intravenous injection, 9 mg/kg, read-out: Absolute bioavailability
  bioavailability: 60.7%
[2]; [9]
  concentration at 2 min: 690 ± 438 ng/mL
  concentration at 10 min: 2320 ± 421 ng/mL
  concentration at 15 min: 1470 ± 588 ng/mL
  concentration at 30 min: 628 ± 95.9 ng/mL
  concentration at 60 min: 289 ± 110 ng/mL
  concentration at 120 min: 57.2 ± 14.2 ng/mL
  concentration at 240 min: 27.4 ± 10.9 ng/mL
  concentration at 360 min: 13.4 ± 3.68 ng/mL
[2]; [10]
  Cmax: 11800 ± 6050 ng/mL
  Tmax: 2.28 ± 0.6 min
  half-life: 48.6 ± 36 min
  MRT last: 14.4 ± 9.6 min
[2]; [11]
  concentration at 2 min: 11700 ± 6170 ng/mL
  concentration at 10 min: 933 ± 401 ng/mL
  concentration at 15 min: 693 ± 284 ng/mL
  concentration at 30 min: 338 ± 70.3 ng/mL
  concentration at 60 min: 77 ± 46.1 ng/mL
  concentration at 120 min: 53.7 ± 54.2 ng/mL
  concentration at 240 min: 8.68 ± 8.46 ng/mL
  concentration at 360 min: 2.64 ± 5.27 ng/mL
[2]; male, inhaled, rat plasma, pulmonary administration BA/AH-DPI 9 mg/kg
  concentration at 4 min: 1740 ± 962 ng/mL
[2]; male, rat plasma, tail intravenous injection BA/AH-DPI saline solution 9 mg/kg
  concentration at 4 min: 3060 ± 861 ng/mL
[2]; rat, pulmonary administration of BA/AH-DPI 9 mg/kg
  Time of maximum blood concentration in plasma: around 9 min
[3]
  D10: 0.88 μm
  D50: 5.18 μm
  D90: 12.61 μm
  SMD (Sauter mean diameter): 2.23 μm
  VMD (Volume median diameter): 6.05 μm
[3]; fraction of particles
  <3 μm: 31.81%
  <5 μm: 48.66%
